Assay results published in the NIST ThermoML archive (doi:10.1016/j.jct.2012.01.003).
Numbers after ± are expanded uncertainties.

Experiments:
[1] = refractive index (Na D-line) (dimensionless); conditions: 298.2 K; 101.33 kPa; Liquid; Standard Abbe refractometry
[2] = 298.2 K; 101.33 kPa; Liquid; Kyoto 210 Density Meter

Compound	refractive index [1]	mass density [2] [kg/m3]
CCC(C)O (stereo unspecified) [butan-2-ol]	1.3949 ± 0.0004	802.34 ± 0.23
CCCCCCCCCCO [decan-1-ol]	1.4344 ± 0.0004	826.86 ± 0.24
CCCCCCCO [heptan-1-ol]	1.4224 ± 0.0004	818.83 ± 0.24
CCCCCCO [hexan-1-ol]	1.4155 ± 0.0004	815.21 ± 0.24
CCCCCCCCO [octan-1-ol]	1.427 ± 0.0004	825.1 ± 0.24
O [water]	1.3324 ± 0.0004	–
